The target of experiment [1] is T1, AHR (Mus musculus, UniProt P30561).
T1 sequence (P30561 1-848 P471L/N533S/M589L): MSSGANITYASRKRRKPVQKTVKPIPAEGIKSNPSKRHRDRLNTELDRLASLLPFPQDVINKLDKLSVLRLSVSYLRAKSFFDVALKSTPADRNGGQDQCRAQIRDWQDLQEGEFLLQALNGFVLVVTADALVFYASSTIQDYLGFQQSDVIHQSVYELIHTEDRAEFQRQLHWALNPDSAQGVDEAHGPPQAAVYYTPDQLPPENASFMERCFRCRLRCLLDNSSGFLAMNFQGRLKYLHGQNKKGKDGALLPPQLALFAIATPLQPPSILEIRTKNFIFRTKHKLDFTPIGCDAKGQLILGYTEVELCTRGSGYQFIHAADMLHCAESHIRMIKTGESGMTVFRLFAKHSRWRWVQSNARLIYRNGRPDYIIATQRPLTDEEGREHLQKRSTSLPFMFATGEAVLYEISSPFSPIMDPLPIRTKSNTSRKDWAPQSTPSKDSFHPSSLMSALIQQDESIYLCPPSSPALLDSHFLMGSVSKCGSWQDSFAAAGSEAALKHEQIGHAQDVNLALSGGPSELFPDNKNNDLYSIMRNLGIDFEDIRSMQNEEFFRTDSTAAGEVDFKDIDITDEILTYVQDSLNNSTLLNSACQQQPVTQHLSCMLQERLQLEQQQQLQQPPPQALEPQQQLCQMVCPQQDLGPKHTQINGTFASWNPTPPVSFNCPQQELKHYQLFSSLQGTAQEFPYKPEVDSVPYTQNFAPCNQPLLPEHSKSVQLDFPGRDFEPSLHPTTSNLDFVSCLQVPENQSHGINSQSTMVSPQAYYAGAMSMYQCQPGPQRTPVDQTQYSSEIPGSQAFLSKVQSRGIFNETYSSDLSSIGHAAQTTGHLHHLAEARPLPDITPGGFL
Briefly: In vitro assay 3: antagonism in mouse cell line (AHR transactivation, firefly luciferase reporter, kynurenic acid prestimulated). Format: cell-based. The note with it: 200 μM kynurenic acid, 20 hours, read-out: AHR Antagonism Mouse IC50. A digest of the protocol:
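Kynurenic acid-prestimulated mouse reporter cells; stable AHR-inducible firefly luc construct with DRE sites in promoter. No-agonist wells = positive inhibition ctrl. Luminescence normalized to pos/neg ctrls; n>1 reported as mean or median.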

The target of experiment [2] is T2, AHR (Homo sapiens, UniProt P35869).
T2 construct: U87 MG glioblastoma cells (ATCC #HTB-14) endogenously expressing AHR; endogenous in cells; host or cells: U87 MG glioblastoma cells (ATCC #HTB-14)
T2 sequence (P35869 11-848): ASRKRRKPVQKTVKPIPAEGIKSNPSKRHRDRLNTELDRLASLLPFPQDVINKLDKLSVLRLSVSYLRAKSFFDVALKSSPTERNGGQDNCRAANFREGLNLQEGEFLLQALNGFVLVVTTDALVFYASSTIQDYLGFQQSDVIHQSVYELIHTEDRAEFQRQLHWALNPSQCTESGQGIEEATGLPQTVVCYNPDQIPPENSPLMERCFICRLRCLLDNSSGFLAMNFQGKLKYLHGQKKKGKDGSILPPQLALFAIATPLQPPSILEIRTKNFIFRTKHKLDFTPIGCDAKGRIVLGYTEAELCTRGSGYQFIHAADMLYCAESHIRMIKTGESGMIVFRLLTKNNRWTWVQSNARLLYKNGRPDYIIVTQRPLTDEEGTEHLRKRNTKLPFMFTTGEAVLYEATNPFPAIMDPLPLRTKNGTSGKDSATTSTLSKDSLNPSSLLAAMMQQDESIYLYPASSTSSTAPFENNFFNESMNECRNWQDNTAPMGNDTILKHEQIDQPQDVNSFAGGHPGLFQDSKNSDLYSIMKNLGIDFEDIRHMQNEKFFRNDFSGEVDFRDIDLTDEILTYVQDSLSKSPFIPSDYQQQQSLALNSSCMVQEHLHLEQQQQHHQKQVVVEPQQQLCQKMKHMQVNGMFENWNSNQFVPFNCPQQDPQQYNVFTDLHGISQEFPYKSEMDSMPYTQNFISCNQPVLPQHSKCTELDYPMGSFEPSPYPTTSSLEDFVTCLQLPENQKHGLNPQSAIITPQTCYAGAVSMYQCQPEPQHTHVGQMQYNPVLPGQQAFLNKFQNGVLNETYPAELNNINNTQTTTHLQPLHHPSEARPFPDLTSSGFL
Briefly: In vitro assay 1: antagonism in human cell line (AHR transactivation, firefly luciferase reporter, kynurenic acid prestimulated). It is filed as cell-based. The note with it: AHR Antagonism Human IC50 [M]. A digest of the protocol:
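Antagonism measured as loss of kynurenic acid-driven firefly luciferase from DRE reporter in stably transfected U87 MG cells; constitutive Renilla signal monitors cytotoxicity. Positive/negative control normalization, staurosporine 5 μM with 150 μM kynurenic acid as inhibition control; replicates given as mean or median.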

Where [3] appears, read: Hepa 1c1c7 cells, firefly luciferase reporter.

“And” between values parts separate entries of the source, which are not always exact repeats. Equal values may be shown once. Read-outs that look alike come from different tables or passages of the source. A value given as a limit tells only on which side of the number the result lay.

Usually IC50 stands for the midpoint of a concentration-inhibition curve. On to `COc1cccc(-c2nc3c4cc(F)ccc4nc(NC4CCCNC4=O)n3n2)c1` (single isomer, unassigned) [Example 189, 3-{[9-fluoro-2-(3-methoxyphenyl)[1,2,4]triazolo[1,5-c]quinazolin-5-yl]amino}piperidin-2-one], for which the IC50 in experiment [1] (mouse Hepa 1c1c7 cells) is 114 nM; in experiment [2], 2.61e-07 M.

On to `COC(=O)[C@H](Nc1nc2ccccc2c2nc(-c3cccc(OC)c3)nn12)C(C)C` [Example 104, methyl N-[2-(3-methoxyphenyl)[1,2,4]triazolo[1,5-c]quinazolin-5-yl]-D-valinate], for which the IC50 in experiment [1] (mouse Hepa 1c1c7 cells) came to 2.43 nM; in experiment [2], 1.12e-08 M.

On to `N#Cc1ccc(-c2nc3c4cccc(Br)c4nc(N[C@H]4CCCCNC4=O)n3n2)cc1` [Example 559, 4-(7-bromo-5-{[(3S)-2-oxoazepan-3-yl]amino}[1,2,4]triazolo[1,5-c]quinazolin-2-yl)benzonitrile], for which the IC50 came out at 10.4 nM in experiment [1] (mouse Hepa 1c1c7 cells) and 5.14e-09 M in experiment [2].

As to `CSc1ccc(-c2nc3c4ccccc4nc(N[C@@H]4CCCCNC4=O)n3n2)cc1` [Example 202, (3R)-3-({2-[4-(methylsulfanyl)phenyl][1,2,4]triazolo[1,5-c]quinazolin-5-yl}amino)azepan-2-one], the IC50 in experiment [1] (mouse Hepa 1c1c7 cells) was found to be 0.657 nM; in experiment [2] it was 5.17e-10 M.

Regarding `O=C1NCCCC[C@H]1Nc1nc2c(Br)cccc2c2nc(-c3ccncc3)nn12` [Example 216, (3R)-3-{[7-bromo-2-(pyridin-4-yl)[1,2,4]triazolo[1,5-c]quinazolin-5-yl]amino}azepan-2-one], the IC50 in experiment [1] (mouse Hepa 1c1c7 cells) was found to be 12.1 nM; in experiment [2], 3.35e-09 M.

With `COc1ccc(-c2nc3c4ccccc4nc(N[C@H](C)C(=O)NCC(C)(C)N)n3n2)cc1` [Example 784, N-(2-amino-2-methylpropyl)-N^2-[2-(4-methoxyphenyl)[1,2,4]triazolo[1,5-c]quinazolin-5-yl]-D-alaninamide], the figures for the 50% inhibitory concentration (IC50) in experiment [1] (setting [3]) and in experiment [2] (firefly luciferase reporter) were 48.1 nM and 9.16e-08 M, respectively.

On to `COc1ccc(-c2nc3c4ccccc4nc(N[C@H]4CCNC4=O)n3n2)cc1` [Example 40, (3S)-3-{[2-(4-methoxyphenyl)[1,2,4]triazolo[1,5-c]quinazolin-5-yl]amino}pyrrolidin-2-one], for which the IC50 in experiment [1] (mouse Hepa 1c1c7 cells) came out at 380 nM; in experiment [2], 2.08e-08 M.

With `CC[C@@H](Nc1nc2c(Br)cccc2c2nc(-c3ccc(OC)cc3)nn12)C(N)=O` [Example 557, (2R)-2-{[7-bromo-2-(4-methoxyphenyl)[1,2,4]triazolo[1,5-c]quinazolin-5-yl]amino}butanamide], the IC50 in experiment [1] (mouse Hepa 1c1c7 cells) turned out to be 0.865 nM; in experiment [2] it was 2.39e-10 M.

On to `CCCNC(=O)[C@H](C)Nc1nc2c(Br)cccc2c2nc(-c3ccc(Cl)cc3OC(F)(F)F)nn12` [Example 811, N^2-{7-bromo-2-[4-chloro-2-(trifluoromethoxy)phenyl][1,2,4]triazolo[1,5-c]quinazolin-5-yl}-N-propyl-L-alaninamide], for which the IC50 is 43.3 nM in experiment [1] (setting [3]); > 5.71e-06 M and 4.65e-06 M and > 2e-06 M in experiment [2] (firefly luciferase reporter).

For the molecule `CC[C@@H](Nc1nc2ccccc2c2nc(-c3ccc(OC)cc3C(F)(F)F)nn12)C(N)=O` [Example 515, (2R)-2-({2-[4-methoxy-2-(trifluoromethyl)phenyl][1,2,4]triazolo[1,5-c]quinazolin-5-yl}amino)butanamide], the IC50 was 2.06 nM in experiment [1] (mouse Hepa 1c1c7 cells) and 3.17e-08 M in experiment [2].

As to `CC(C)c1noc(-c2nc3c4ccccc4nc(N[C@@H]4CCCCNC4=O)n3n2)n1` [Example 133, (3R)-3-({2-[3-(propan-2-yl)-1,2,4-oxadiazol-5-yl][1,2,4]triazolo[1,5-c]quinazolin-5-yl}amino)azepan-2-one], the IC50 in experiment [1] (mouse Hepa 1c1c7 cells) was 32.7 nM; in experiment [2], 1.92e-08 M.

As for `COc1ccc(-c2nc3c4cccc(C5(C)CC5)c4nc(N[C@@H]4CCCCNC4=O)n3n2)cc1` [Example 399, (3R)-3-{[2-(4-methoxyphenyl)-7-(1-methylcyclopropyl)[1,2,4]triazolo[1,5-c]quinazolin-5-yl]amino}azepan-2-one], the results for the IC50 in experiment [1] (mouse Hepa 1c1c7 cells) and in experiment [2] were 55.7 nM and 1.85e-08 M, respectively.

Consider `O=C1NCCC[C@H]1Nc1nc2ccccc2c2nc(-c3ccncc3F)nn12` [Example 482, (3R)-3-{[2-(3-fluoropyridin-4-yl)[1,2,4]triazolo[1,5-c]quinazolin-5-yl]amino}piperidin-2-one], for which the results for the IC50 in experiment [1] (mouse Hepa 1c1c7 cells) and in experiment [2] were 3160 nM and 2.23e-06 M, respectively.

Regarding `O=C1NCCCC[C@H]1Nc1nc2ccccc2c2nc(-c3ccnc(F)c3)nn12` [Example 638, (3R)-3-{[2-(2-fluoropyridin-4-yl)[1,2,4]triazolo[1,5-c]quinazolin-5-yl]amino}azepan-2-one], the half-maximal inhibitory concentration (IC50) is 10.4 nM in experiment [1] (mouse Hepa 1c1c7 cells) and 4e-09 M in experiment [2].

`COc1ccc(-c2nc3c4cccc(C(F)(F)F)c4nc(N[C@@H]4CCCCNC4=O)n3n2)cc1` [Example 204, (3R)-3-{[2-(4-methoxyphenyl)-7-(trifluoromethyl)[1,2,4]triazolo[1,5-c]quinazolin-5-yl]amino}azepan-2-one]: the IC50 in experiment [1] (mouse Hepa 1c1c7 cells) was 1.02 nM; in experiment [2], 1.15e-09 M.

`CCC[C@@H](Nc1nc2c(Br)cccc2c2nc(-c3ccc(C#N)cc3)nn12)C(=O)NC` [Example 562, N^2-[7-bromo-2-(4-cyanophenyl)[1,2,4]triazolo[1,5-c]quinazolin-5-yl]-N-methyl-D-norvalinamide]: the IC50 in experiment [1] (mouse Hepa 1c1c7 cells) turned out to be 2.98 nM; in experiment [2], 1.37e-09 M.

Consider `Cn1cc(-c2nc3c4c(F)cccc4nc(N[C@@H]4CCCCNC4=O)n3n2)cn1` [Example 244, (3R)-3-{[10-fluoro-2-(1-methyl-1H-pyrazol-4-yl)[1,2,4]triazolo[1,5-c]quinazolin-5-yl]amino}azepan-2-one], for which the values for the IC50 in experiment [1] (mouse Hepa 1c1c7 cells) and in experiment [2] were 66.7 nM and 2.17e-08 M, respectively.

On to `O=C1NCCCC[C@H]1Nc1nc2cccc(C(F)(F)F)c2c2nc(-c3ccc(F)cc3)nn12` [Example 174, (3R)-3-{[2-(4-fluorophenyl)-10-(trifluoromethyl)[1,2,4]triazolo[1,5-c]quinazolin-5-yl]amino}azepan-2-one], for which the IC50 in experiment [1] (mouse Hepa 1c1c7 cells) is 4.04 nM; in experiment [2], 2.26e-08 M.

Turning to `Cn1nccc1-c1nc2c3cccc(C(F)(F)F)c3nc(N[C@@H]3CCCCNC3=O)n2n1` [Example 808, (3R)-3-{[2-(1-methyl-1H-pyrazol-5-yl)-7-(trifluoromethyl)[1,2,4]triazolo[1,5-c]quinazolin-5-yl]amino}azepan-2-one], the IC50 in experiment [1] (setting [3]) turned out to be 1.16 nM; in experiment [2] (firefly luciferase reporter), 8.12e-10 M.

As to `C[C@@H](Nc1nc2c(Br)cccc2c2nc(-c3cnn(C)c3)nn12)C(=O)N1CCOCC1` [Example 785, (2R)-2-{[7-bromo-2-(1-methyl-1H-pyrazol-4-yl)[1,2,4]triazolo[1,5-c]quinazolin-5-yl]amino}-1-(morpholin-4-yl)propan-1-one], the results for the IC50 in experiment [1] (setting [3]) and in experiment [2] (firefly luciferase reporter) were 32.2 nM and 2.38e-08 M, respectively.

Source of the values: US20230113037A1 (Bayer Aktiengesellschaft, priority 2019, published 2023).
